Laboratory results published in patent US6951639B2, “1,4,7,10-tetraazacyclododecane butyltriols, processes for their production and pharmaceutical agents containing them” (Schering AG, priority 1990, dated 2005).

Experiments:
rats = experiment: Intracisternal administration (ED50), neural compatibility; type: in vivo, rats (Wistar-Han-Schering, SPF); conditions: once intracisternally, 0.08 ml/animal, posture anomalies, spasms and death as criteria
Protocol: 2. Intracisternal Administration (ED50)
The test substance was administered under light ether anesthesia to an equal number of female and male rats (130-170 g, Wistar-Han-Schering, SPF) once intracisternally by suboccipital puncture in constant volumes (0.08 ml/animal) in different concentrations (3 doses per 10 animals per substance). A volume sampling check (Ringer's solution) followed the study. Posture anomalies, spasms and death of the animals were evaluated as action criteria.
(§1) The statistical evaluation of all study results took place with the probit analysis.

mice = experiment: Acute toxicity determination (LD50), intravenous administration in a caudal vein; type: in vivo; conditions: mice 18-22 g, 2 ml/min, 7 days observation, death as criterion
Protocol: 1. Acute Toxicity Determination (LD50)
In an individual cage (Rhema/Hofheim company) the contrast medium was administered to mice (weight: 18-22 g) approximately at body temperature in a caudal vein at a rate of 2 ml/min. […]
The contrast media were administered to 3 mice each in 3 doses at variable volumes and constant concentration. The allocation of the animals to the individual doses and the injection sequence of the doses took place by chance.
The observation period of the animals extended over 7 days per injection. The death of the animals was used as the criterion of the effectiveness.
as §1

[1] = tested on: cerebral infarction in the rat; experiment: NMR-diagnostic in vivo examination: demonstration of a cerebral infarction in the rat; set-up: species or system Wistar rat; conditions: image 1 minute after administration
Protocol: The experimental animal was a female Wistar rat weighing 200 g. For the induction of the cerebral infarction, the animal was first anesthetized. After intravenous injection of Bengal red with a dose of 20 mg/kg, an area of the brain about 0.7 cm in diameter near the bregma point was irradiated through the cranium with light of wavelength 548 nm (this corresponds to the maximum absorption of Bengal red), by which, because of the formation of singlet oxygen by a chain of various reactions, there results the aggregation of platelets and thus an infarction in the irradiated region.
The imaging took place in an MRI experimental device of the General Electric company (field strength, 2 teslas). It was performed with a spin echo sequence (TR=400 msec, Ts=20 msec). The layer thickness was 3 mm, and 4 averagings were performed respectively.
An axial sectional plane image without contrast medium where the cranium points downward was taken. The infraction area is indicated only quite weakly by a lower signal intensity in comparison to the healthy tissue. […] The same animal was administered another dose after about 20 minutes, this time in the amount of 0.3 mmol of Gd/kg.

[2] = reference value for monomer contrast media; cited from earlier work

Structure (SMILES): O=C([O-])CN1CCN(CC(=O)[O-])CCN(CC(O)C(O)CO)CCN(CC(=O)[O-])CC1.[Gd+3] (stereo not shown) [Example 1, Gadolinium Complex of 10-(2,3,4-trihydroxybutyl)-1,4,7-triscarboxymethyl-1,4,7,10-tetraazacyclododecane]
- Neural ED50 (rats): 27 µmol/kg
- Acute i.v. LD50 (mice): 35 mmol/kg

Structure (SMILES): O=C([O-])CN1CCN(CC(=O)[O-])CCN(C(CO)C(O)CO)CCN(CC(=O)[O-])CC1.[Gd+3] (stereo not shown) [Example 2, Gadolinium Complex of 10-(1-hydroxymethyl-2,3-dihydroxypropyl)-1,4,7-triscarboxymethyl-1,4,7,10-tetraazacyclododecane]
- signal enhancement in the area of infarction (MRI) ([1]; 0.1 mmol of Gd/kg, 2 teslas, spin echo): clear enhancement
- signal enhancement in the area of infarction (MRI) ([1]; further dose of 0.3 mmol of Gd/kg after about 20 minutes): enhancement substantially stronger than after the smaller dose
- Neural ED50 (rats): 29 µmol/kg
- Acute i.v. LD50 (mice): 30 mmol/kg

Structure (SMILES): OC[C@@H](O)[C@@H](O)[C@H](O)[C@H](O)CO [mannitol]
- intravenous compatibility [2]: 30 to 40 mmol/kg
